Test results: patent publication US20180186796A1, “COMPOUNDS AND USES THEREOF” (LEAD DISCOVERY SIENA S.R.L., priority 2014, published 2018)
Converted amounts (≈) assume the structure as drawn. Where two headings read alike, the source gives them in different places.

Experiments:
[1] = Microsomal stability assay; settings: percentage of unmodified drug, Table 8
U251 cells = test: Proliferation assay on U251 cells; format: cell-based, human; settings: 72 h, viable cells vs untreated
Protocol: (§1) U87 and U251 cells were purchased from European Collection of Cell Cultures (ECACC, Salisbury, UK) and were cultured in DMEM medium supplemented with 10% Foetal Bovine Serum. In order to determine antiproliferative effect of drugs tumor cells were seeded at 2×10^5 cells/ml density and treated with compounds at indicated concentrations. The cultures were maintained at 37° C. in 5% v/v CO2 for 72 h. Cell number and viability were evaluated by Trypan blue exclusion test. Viable cells were expressed as percentage respect to cells treated with vehicle (=100%). Mean and SD values of at least three different experiments are shown.
(§2) U87 and U251 cells were purchased from European Collection of Cell Cultures (ECACC, Salisbury, UK) and were cultured in DMEM medium supplemented with 10% Foetal Bovine Serum. In order to determine antiproliferative effect of drugs tumor cells were seeded at 2×10^5 cells/ml density and treated with compounds at indicated concentrations. The cultures were maintained at 37° C. in 5% v/v CO2 for 72 h. Cell number and viability were evaluated by Trypan blue exclusion test. Viable cells were expressed as percentage respect to untreated cells (=100%/). Mean and SD values of at least three different experiments are shown.

U87 cells [2] = test: Proliferation assay on U87 cells; format: cell-based, human; settings: 72 h, viable cells vs untreated
Protocol: as §1, §2

SH-SY5Y cells = test: Antiproliferative activity on neuroblastoma human cell line SH-SY5Y; format: cell-based; settings: 72 h, viable cells vs untreated
Protocol: (§3) In vitro experiments were carried out using the human neuroblastoma cell line SH-SY5Y. Cells were purchased from American Type Culture Collection (ATCC, Manassas, Va., USA) and were cultured in DMEM medium supplemented with 100/Foetal Bovine Serum. In order to determine antiproliferative effect of drugs SH-SY5Y cells were seeded at 2×10^5 cells/ml density and treated with compounds at increasing concentrations from 0.01 to 50 μM. The cultures were maintained at 37° C. in 5% v/v CO2 for 72 h. Cell number and vitality were evaluated using the automatic cell counter NucleoCounter® (Chemometec, Denmark). Results from the NucleoCounter represented either total or non-viable cell concentration, depending on the sample preparation indicated by manufacturer.
as §3, with “10% Foetal” for “100/Foetal”

PAMPA, BBB permeability = settings: for PAMPA BBB (MR %): Membrane Retention; for Papp at 5 h, 0.5 mM: PAMPA, pH 7.4
Protocol: Donor solution (0.5 mM) was prepared by diluting 1 mM dimethylsulfoxide (DMSO) compound stock solution using phosphate buffer (pH 7.4, 0.025 M). […] Donor solution (150 μL) was added to each well of the filter plate. To each well of the acceptor plate were added 300 μL of solution (50% DMSO in phosphate buffer). All compounds were tested in three different plates on different days. The sandwich was incubated for 5 h at room temperature under gentle shaking. After the incubation time, the plates were separated, and samples were taken from both receiver and donor sides and analyzed using LC with UV detection at 280 nm.
Permeability (Papp) for PAMPA was calculated according to the following equation, obtained from Wohnsland and Faller^27 and Sugano et al.^28 equation with some modification in order to obtain permeability values in cm s^−1,
Drug concentration is estimated by using the peak area integration. Membrane retentions (%) were calculated according to the following equation:
where r is the ratio between drug concentration in the acceptor and equilibrium concentration, D, A, and Eq represented drug concentration in the donor, acceptor and equilibrium solution, respectively.
Donor solution of tested compounds (0.5 mM) was prepared by diluting 1 mM dimethylsulfoxide (DMSO) compound stock solution using phosphate buffer (pH 7.4, 25 mM). […] Donor solution (150 μL) was added to each well of the filter plate. To each well of the acceptor plate were added 300 μL of solution (50% DMSO in phosphate buffer). Compounds was tested in three different plates on different days. The sandwich was incubated for 5 h at room temperature under gentle shaking.
Permeability (Papp) for PAMPA was calculated according to the following equation, obtained from Wohnsland and Faller and Sugano et al.^27, 28.
Drug concentration is estimated by using the peak area integration. Membrane retention (%) was calculated according to the following equation:

[3] = PAMPA, intestinal (GI) permeability; settings: for PAMPA GI (MR %): Membrane Retention; for Papp at 5 h, 0.5 mM: PAMPA, pH 7.4
Water solubility assay = settings: for H2O Sol.: Table 8, 20° C., 24 h; for solubility at 24 h / solubility thermodynamic at 24 h: water, 20 °C, thermodynamic from solid
Protocol: Each solid compound (1 mg) was added to 1 mL of water. […] The suspensions were filtered through a 0.45 μm nylon filter (Acrodisc), and the solubilized compound determined by LC-MS-MS assay. For each compound the determination was performed in triplicate. […] The flow rate was 0.2 mL min-^−1 and injection volume was 5 μL. The instrument operated in positive mode and parameters were: detector 1850 V, drying gas pressure 25.0 psi, desolvation temperature 300.0° C., nebulizing gas 40.0 psi, needle 5000 V and shield 600 V. Nitrogen was used as nebulizer gas and drying gas.
Solid compound (1 mg) was added to 1 mL of water. […] The suspensions were filtered through a 0.45-μm nylon filter (Acrodisc), and the solubilised compound determined by LC-UV-MS assay. The determination was performed in triplicate.
Chromatographic analysis was performed with the method above reported and quantification of compounds was made by comparison with apposite calibration curves realized with standard solutions in methanol.

human normal fibroblasts = test: Toxicity in human normal fibroblasts; format: cell-based
K562 cells = test: Antiproliferative activity on human cell line K562; format: cell-based
Protocol: In vitro experiments were carried out using the human Chronic Myelogeneous Leukemia cell line K562. Cells were purchased from American Type Culture Collection (ATCC, Manassas, Va., USA) and were cultured in RPMI medium supplemented with 10% Foetal Bovine Serum. […] Cell number and vitality were evaluated using the automatic cell counter NucleoCounteri (Chemometec, Denmark). Results from the NucleoCounter represented either total or non-viable cell concentration, depending on the sample preparation indicated by manufacturer.
In vitro experiments were carried out using the human Chronic Myelogeneous Leukemia cell line K562. Cells were purchased from American Type Culture Collection (ATCC, Manassas, Va., USA) and were cultured in RPMI medium supplemented with 10% Foetal Bovine Serum. […] Cell number and vitality were evaluated using the automatic cell counter NucleoCounter® (Chemometec, Denmark). Results from the NucleoCounter represented either total or non-viable cell concentration, depending on the sample preparation indicated by manufacturer.

[4] = test system: Fyn mediated phosphorylation of residue Tyr18 in Tau protein; test: Aβ42 induced Tyr18-Tau phosphorylation in differentiated SH-SY5Y cells; format: cell-based, human
Protocol: The neuroblastoma cell line SH-SY5Y was cultured in media obtained by mixing equal volume of MEM and HAM F12 supplemented with 15% fetal calf serum (FCS, Australian origin, Lonza), 100 U/ml penicillin, 100 μg/ml streptomycin and 2 mM L-glutamine (all from Euroclone) at 37° C. in humidified air with 5% CO2. The medium was changed every 48 hours. Cells were split at about 80% confluence and never cultured beyond passage 20. Cell differentiation was achieved by pre-treating for 5 days the SH-SY5Y cells with media containing 1% FCS and 10 μM retinoic acid (RA, Sigma Aldrich). Subsequently cells were treated for other 7 days in media with no serum and supplemented with 50 ng/ml of human recombinant brain derived neurotrophic factor (BDNF, Peprotech), 10 ng/ml human recombinant beta nerve growth factor (NGF, Peprotech), 10 ng/ml neuregulin 1 beta 2 protein (NRG, Abcam) and 9.35 μg/ml vitamin D3 (Sigma Aldrich). To confirm full neuronal differentiation, the expression of mature isoforms of Tau were checked. Differentiated cells were treated for 1.5, 3 and 6 hours with media containing 10 μM Aβ42 oligomer/protofibrils and N2 supplement (Life Technologies), in the presence or in the absence of Fyn inhibitors dissolved in DMSO. As control, cells were treated with media containing equivalent amounts of DMSO.
Briefly, Aβ42 peptides (Sigma) were dissolved in 1,1,1,3,3,3-hexafluoro-2-propanol and lyophilized to completely remove the solvent. Lyophilized Aβ42 peptides were reconstituted in DMSO to a working concentration of 10 mM, diluted 1:100 using HAM F12 (without phenol red and glutammine), vortexed for 15 sec and incubated 24 hours at 4° C. A042 oligomer/protofibrils were visualized by SDS-PAGE and silver staining.

[5] = Stability tests in phosphate buffer and methanol; format: physicochemical; settings: 20° C., 48 h incubation
[6] = Enzymatic stability in human plasma; format: in vitro ADME; settings: for half-life at 100 μM: human, pooled human plasma diluted with phosphate buffer, pH 7.4
[7] = In vivo pharmacokinetics / biodistribution; set-up: species or system mice; settings: 50 mg/Kg i.p.; for Quantity of Compound, BLOOD / Quantity of Compound, BRAIN: administered compound itself, BALB/C mice
Protocol: The animal protocols used were reviewed and approved by the Animal Care and Ethics Committee of the Universita{grave over ( )} degli Studi di Siena, Italy. Male BALB/C mice (weight 20-30 g) were obtained from Charles River (Milan, Italy). […] The blood, previously heparinized, was centrifuged at 4000 rpm for 20 minutes to separate the plasma fraction and then 500 μl were collected in a test tube. […] Samples were centrifuged at 4000 rpm for 20 minutes, the supernatant was recovered, dried under vacuum and analyzed by LC-UV-MS. Brain was homogenized using a glass/glass Potter-Elvehjem homogenizer in presence of Tris-HCl buffer (50 mM) and compounds were recovered using 7 mL of ACN then treated as previously described for blood samples.

U87 cells [8] = test: Orthotopic mouse model of GBM; format: in vivo, mice; settings: 50 mg/kg three times per week for 4 weeks
Protocol: Survival curves (days) of orthotopic mouse model of GBM.
Male CD1 nude mice (Charles River, Milan, Italy) were maintained under the guidelines established by University of L'Aquila, Medical School and Science and Technology School Board Regulations, complying with the Italian government regulations for the use of laboratory animals. Before any invasive manipulation, mice were anesthetized with a mixture of ketamine (25 mg/ml)/xylazine (5 mg/ml). Tumor grafts were obtained by injecting with a Hamilton syringe mounted on a stereotactic instrument, 2*10^3 U87 cells resuspended in 2 microL PBS (David Kopf Instruments, CA, USA). The cells were injected after the exposition of periosteal cranic site and the drimming of a 1 mm diameter hole localized at 4 mm from striatum and with a depth of 4 mm. The wound was treated with antibiotics and was surgically sutured.

[9] = methanol, read-out: Stability MeOH t1/2
[10] = phosphate buffer, pH 7.4, read-out: Stability PBS pH 7.4 t1/2
[11] = 37° C., read-out: Stability Human Plasma t1/2 (converted)

SMILES	Metabolic Stab. % [1]	PAMPA BBB (MR %) (PAMPA, BBB permeability)	PAMPA GI (MR %) [3]	H2O Sol. (Water solubility assay)	IC50 (U251 cells; Homo sapiens, U-251)	IC50 (U87 cells [2]; Homo sapiens, U-87 MG)	half-life at 500 μM [5, 9]	half-life at 500 μM [5, 10]	IC50 (SH-SY5Y cells; Homo sapiens, SH-SY5Y)	Papp at 5 h, 0.5 mM (PAMPA, BBB permeability)	Papp at 5 h, 0.5 mM [3]	solubility at 24 h (Water solubility assay)	solubility thermodynamic at 24 h (Water solubility assay)	half-life at 100 μM [6, 11]	also measured
CSc1nc(Nc2cccc(Br)c2)c2cnn(CC(C)c3ccccc3)c2n1 (centres unmarked) [Si278, N-(3-bromophenyl)-6-(methylthio)-1-(2-phenylpropyl)-H-pyrazolo[3,4-d]pyrimidin-4-amine]	95.1%	(66.3) %	(80.4) %	<0.01 µg/mL											IC50 (U251 cells): 3.7 µM; IC50 (U87 cells [2]): 5.8 µM; IC50 (SH-SY5Y cells): 1.2 µM; PAMPA BBB (PAMPA, BBB permeability; Blood Brain Barrier PAMPA): 0.50 10^−6 cm · sec^−1; PAMPA GI ([3]; Gastrointestinal PAMPA, Table 8): 0 10^−6 cm · sec^−1; H2O Sol. (Log S) (Water solubility assay; Table 8): (<−7.60) log mol · L^−1
Cc1ccc(-c2nn(CC(Cl)c3ccccc3)c3ncnc(N)c23)cc1 (centres unmarked) [Si309, 1-(2-Chloro-2-phenylethyl)-3-(4-methylphenyl)-1H-pyrazolo[3,4-d]pyrimidin-4-amine]															cell toxicity in human normal fibroblasts (human normal fibroblasts): did not showed any sign of cell toxicity; IC50 for cell viability K562 (K562 cells): submicromolar range; IC50 (K562 cells; Homo sapiens, K562, read-out: Cellular Data (IC50, μM) K562): 0.3 ± 0.06 µM; duration of inhibitory activity on Tau phosphorylation ([4]; after compound administration): effective up to six hours; Aβ42 induced Tyr18-Tau phosphorylation ([4]; dose dependent): significantly affected
CSc1nc(N(C(=O)OCCN2CCN(C)CC2)c2cccc(Br)c2)c2cnn(CC(C)c3ccccc3)c2n1 (centres unmarked) [proSi278 (A), 2-(4-Methylpiperazin-1-yl)ethyl (3-bromophenyl)(6-(methylthio)-1-(2-phenylpropyl)-1H-pyrazolo[3,4-d]pyrimidin-4-yl)carbamate]	99.9%	(49.8) %	(67.0) %	6.47 µg/mL	5.2 µM	6.3 µM	> 48 h	> 48 h	0.4 µM	1.89 ×10⁻⁶ cm/s	2.11 ×10⁻⁶ cm/s	11.5 µM (≈ 7.17 µg/mL)			Stability Human Plasma t1/2 ([6]; 37° C.): 3.21 h; half-life at 100 μM ([6]; read-out: t1/2 in human plasma (converted)): 3.21 h
CN1CCN(CCOC(=O)N(c2ccccc2)c2ncnc3c2cnn3CC(Cl)c2ccc(Br)cc2)CC1 (centres unmarked) [proSi223, 2-(4-Methylpiperazin-1-yl)ethyl (1-(2-(4-bromophenyl)-2-chloroethyl)-H-pyrazolo[3,4-d]pyrimidin-4-yl)(phenyl)carbamate]		(24.9) %	(16.0) %		4.7 µM	5.1 µM	> 48 h	> 48 h	12.6 µM	6.97 ×10⁻⁶ cm/s	9.91 ×10⁻⁶ cm/s	70.8 µM (≈ 42.4 µg/mL)	41.6 µg/mL (≈ 69.4 µM)	4.47 h	
CN1CCN(CCOC(=O)N(c2cccc(Br)c2)c2nc(SCCN3CCOCC3)nc3c2cnn3CC(Cl)c2ccccc2)CC1 (centres unmarked) [proSi306]		(42.0) %	(45.5) %				> 48 h	> 48 h		2.91 ×10⁻⁶ cm/s	2.13 ×10⁻⁶ cm/s	11.7 µM (≈ 8.74 µg/mL)	8.7 µg/mL (≈ 11.7 µM)	3.48 h	brain concentration with respect to the drug [7]: higher brain concentration; Quantity of Compound, BLOOD ([7]; 15′): 10.7 ± 1.11 nmol of compound/g of tissue; Quantity of Compound, BLOOD ([7]; 30′): 8.9 ± 1.22 nmol of compound/g of tissue; Quantity of Compound, BLOOD ([7]; 1 h): 11.4 ± 1.29 nmol of compound/g of tissue; Quantity of Compound, BLOOD ([7]; 2 h): 7.2 ± 2.17 nmol of compound/g of tissue; Quantity of Compound, BLOOD ([7]; 4 h): 6.5 ± 0.58 nmol of compound/g of tissue; Quantity of Compound, BLOOD ([7]; 8 h): 6.2 ± 2.07 nmol of compound/g of tissue; Quantity of Compound, BLOOD ([7]; 24 h): 3.7 ± 0.60 nmol of compound/g of tissue; Quantity of Compound, BLOOD ([7]; […]): 8.3 ± 2.21 nmol of compound/g of tissue; Quantity of Compound, BRAIN ([7]; 15′): 5.3 ± 1.5 nmol of compound/g of tissue; Quantity of Compound, BRAIN ([7]; 30′): 3.4 ± 0.33 nmol of compound/g of tissue; Quantity of Compound, BRAIN ([7]; 1 h): 3.4 ± 2.24 nmol of compound/g of tissue; Quantity of Compound, BRAIN ([7]; 2 h): 2.8 ± 0.60 nmol of compound/g of tissue; Quantity of Compound, BRAIN ([7]; 4 h): 2.9 ± 1.38 nmol of compound/g of tissue; Quantity of Compound, BRAIN ([7]; 8 h): 3.6 ± 2.12 nmol of compound/g of tissue; Quantity of Compound, BRAIN ([7]; 24 h): 6.6 ± 1.08 nmol of compound/g of tissue; Quantity of Compound, BRAIN ([7]; […]): 2.4 ± 0.24 nmol of compound/g of tissue; survival of mice respect to control group (U87 cells [8]): significant ability in prolonging survival
CCCCN(C(=O)OCCN1CCN(C)CC1)c1nc(SCC)nc2c1cnn2CC(Cl)c1ccccc1 (centres unmarked) [proSi20, 2-(4-Methylpiperazin-1-yl)ethyl butyl(1-(2-chloro-2-phenylethyl)-6-(ethylthio)-1H-pyrazolo[3,4-d]pyrimidin-4-yl)carbamate]					0.8 µM	3.6 µM			0.3 µM						
